Assay results: patent US20100035843A1, “METHODS FOR ATTENUATING ALLERGEN-INDUCED AIRWAY HYPERREACTIVITY USING CD1D DEPENDENT ANTAGONISTS” (THE GENERAL HOSPITAL CORPORATION, priority 2007, published 2010)

How the values were obtained:
[1] = system: CD1d; conditions: references 2-5; cited from earlier work
[2] = system: iNKT cell; conditions: references 2-5; cited from earlier work
[3] = system: OVA-induced AHR; experiment: OVA-induced model of airway hyperreactivity (AHR); type: in vivo, BALB/c mice; conditions: for number of cells (eosinophils, lymphocytes, macrophages) in BAL fluid: versus OVA-immunized control group, BAL 3 h after airway measurements (FIG. 2D); for histological examination of H&E-stained lung sections: OVA-immunized mice, compared with saline (negative) control (data not shown); for development of methacholine-induced AHR (PenH, whole-body plethysmograph): single dose 250 μg i.v., 1 day before OVA challenge, OVA-immunized mice (FIG. 2B)
Procedure: DPPE (250 μg) was injected i.v. on day 8 and AHR was measured on day 12. Reagents. Anti-CD3 mAb was purchased from BD PharMingen (San Diego, Calif.). α-Galactosylceramide (α-[…]7000) was purchased from Axxora LLC (San Diego, Calif.). DPPE-PEG. (1,2-Dipalmitoyl-sn-Glycero-3-Phosphoethanolamine-N-[Methoxy(Polyethylene glycol)-350]) (Ammonium Salt) (PEG350) was purchased from Avanti Polar Lipids, INC (Alabaster, Ala.). We thank A. Bendelac for the DN32.D3 hybridoma cells. To induce AHR, mice were immunized intraperitoneally with 50 μg of LPS free OVA (Worthington Biochemical Corp., NJ) in 2 mg of alum in volume of 0.5 ml. Ten days later mice were lightly anesthetized with methoxoflurane and challenged with i.n. OVA (50 μg) on 3 consecutive days. Induction of AHR and measurement of airway responsiveness-AHR responses were assessed by methacholine-induced airflow obstruction in conscious mice placed in a whole-body plethysmograph (Buxco Electronics, Troy, N.Y.) as described previously 15. In some experiments AHR was assessed by invasive measurement of airway resistance, in which anesthetized and tracheostomized mice were mechanically ventilated using a modified version of a described method 36. Aerosolized methacholine was administered for 20 breaths in increasing concentrations (1.25, 2.5, 5 and 10 mg/ml of methacholine). We continuously computed RL and Cdyn by fitting flow, volume and pressure to an equation of motion. Collection and analysis of BAL fluid-Mice were lethally anesthetized with phenobarbital 450 mg/kg i.p. The trachea was cannulated and the lungs were lavaged three times with 0.3 ml of PBS, and the collected fluid was pooled. Cell counts and analysis of the BAL was performed as described (15). […] In this model, an asthma-like phenotype with AHR, eosinophilic airway inflammation and mucus hypersecretion is induced by systemic sensitization with OVA followed by intrapulmonary challenge with OVA (FIG. 2A).

[4] = system: OVA-specific Th2 responses; experiment: Restimulation of bronchial lymph node cells of treated mice with OVA in vitro, cytokine ELISA; type: in vivo, BALB/c mice
Procedure: Bronchial lymph nodes were removed from Peg treated or PBS treated mice and restimulated with 100 μg of OVA in vitro. After 72 hrs supernatants were collected and cytokine production analyzed by ELISA. ELISA data are representative of three separate experiments (n=4) and are shown as mean±SD for triplicate samples. Restimulation of lymph node cells in vitro. Cells isolated from lymph nodes of OVA-primed mice were restimulated in vitro (5×10^5 cells per well in a 96-well plate) with various concentrations of OVA. Supernatants were collected after 4 days and assayed for IL-4 and IFN-γ by ELISA as previously described (15). Cytokine ELISAs—Cytokine secretion following in vitro challenge with OVA and control peptides were determined by ELISA as described before (15). Briefly, the following monoclonal antibodies R4-6A2 and XMG1.2-biotin for IFN-γ and 11B11 and BVD6-24G2-biotin for IL-4 were used for capture and detection. […] Bronchial lymph nodes were removed from Peg treated or PBS treated mice and restimulated with 100 μg of OVA in vitro. After 72 hrs supernatants were collected and cytokine production analyzed by ELISA. ELISA data are representative of three separate experiments (n=4) and are shown as mean±SD for triplicate samples. Since treatment with DPPE-PEG350 inhibited the development of AHR, we next asked if administration of the CD1d-dependent antagonist prior to airway challenge altered systemic OVA-specific Th2 responses. Bronchial lymph node cells were isolated from OVA sensitized mice treated with either DPPE-PEG350 or PBS, and restimulated in vitro with 100 μg/ml of ovalbumin a day after induction of AHR. […] No OVA-specific cytokine secretion was seen if the animals had not been sensitized with OVA on day 0 (data not shown).

[5] = system: α-GalCer-stimulated iNKT cells; experiment: Inhibition of in vitro iNKT activation: splenocytes stimulated with α-GalCer, cytokine ELISA; type: cell-based, BALB/cJ mice
Procedure: (§1) FIGS. 1A and 1B show splenocyte cells (5×10^6/ml) pooled from BALB/cJ mice (n=4) that were cultured in anti-CD3 mAb (2 μg/ml)-precoated 24-well plates in complete RPMI±increasing concentrations of DPPE-PEG350, or that were cultured in 24-well plates in complete RPMI±α-GalCer (100 ng/ml)±increasing concentrations of DPPE-PEG350. After 48 h, supernatants were gathered and examined for IL-4 and INF-γ by ELISA. ELISA data are representative of three separate experiments each and are shown as mean±SD for triplicate samples.
(§2) Inhibition of in vitro iNKT activation with DPPE-PEG-Splenocytes cells (5×10^6/ml) pooled from BALB/cJ mice (n=4) were cultured in anti-CD3 mAb (2 μg/ml)-precoated 24-well plates in complete RPMI±increasing concentrations of DPPE-PEG350, or cultured in 24-well plates in complete RPMI±KRN7000 (100 ng/ml)±increasing concentrations of DPPE-PEG350. After 48 h, supernatants were gathered and examined for IL-4 and INF-γ by ELISA as described (35).
(§3) Phosphatidylethanolamine and DPPE-PEG bind to CD1d and prevent iNKT cell activation (2-5). To determine whether activation of iNKT cells by α-GalCer could specifically be inhibited by DPPE-PEG, splenocytes were incubated with α-GalCer (100 ng/ml) or plate-bound anti-CD3. […] Culture supernatants were collected and IL-2 expression expression analyzed with IL-2 dependant cell line CTLL-2. […]

[6] = system: anti-CD3 activated T cells; experiment: Splenocytes cultured on plate-bound anti-CD3 mAb, cytokine ELISA; type: cell-based, BALB/cJ mice; conditions: plate-bound anti-CD3 2 μg/ml, at concentrations that significantly inhibited α-GalCer-stimulated secretion
Procedure: as §1, §2, §3

[7] = system: iNKT cell hybridoma line DN32; experiment: DN32 NKT hybridoma activation by α-GalCer, IL-2 release read with CTLL-2 cells; type: cell-based; conditions: 200 μg/ml for 4 hours, then titrating α-GalCer 48 h; particularly at suboptimal α-GalCer (FIG. 1C)
Procedure: Culture supernatants were collected and IL-2 expression expression analyzed with IL-2 dependant cell line CTLL-2. Data are means±SD of triplicate cultures.
as §1, with “Phosphatidylethanolamine and DPPE-PEG bind to CD1d and prevent iNKT cell activation (2-5). To determine whether activation of iNKT cells by α-GalCer could specifically be inhibited by DPPE-PEG, splenocytes were incubated with α-GalCer (100 ng/ml) or plate-bound anti-CD3. […] FIGS.” for “FIGS.”, “samples. […] Culture supernatants were collected and IL-2 expression expression analyzed with IL-2 dependant cell line CTLL-2. Data are means±SD of triplicate cultures.” for “samples.”
We also tested the ability of DPPE-PEG350 to block the iNKT cell hybridoma line DN32, activation by α-GalCer. DN32 cells were loaded with 200 μg/ml of DPPE-PEG, and stimulated with titrating dose of α-GalCer. […]

[8] = system: contact hypersensitivity (CHS); conditions: Nieuwenhuis et al.; cited from earlier work
[9] = bronchial lymph node cells, 100 μg/ml ovalbumin, versus PBS treated group (FIG. 3)

Compound	binding to CD1d [1]	iNKT cell activation [2]	number of cells (eosinophils, lymphocytes, macrophages) in BAL fluid ([3]; 250 μg i.v.)	histological examination of H&E-stained lung sections [3]	development of methacholine-induced AHR (PenH, whole-body plethysmograph) [3]	development of OVA specific Th2 responses ([4]; bronchial lymph nodes restimulated with 100 μg of OVA, 72 hrs (FIG. 3))	secretion of IL-4 by α-GalCer-stimulated iNKT cells ([5]; splenocytes, α-GalCer 100 ng/ml, increasing concentrations of DPPE-PEG, 48 h, ELISA (FIG. 1A/1B))	iNKT cells cytokine release compared to anti-CD3 activated T cells (preference) ([5]; α-GalCer-stimulated versus anti-CD3-stimulated splenocytes (FIGS. 1A and B))	cytokine production by anti-CD3 activated T cells [6]	IL-2 release from DN32 iNKT cells [7]	AHR by direct measurement of airway resistance (RL) and dynamic compliance (Cdyn) ([3]; 250 μg i.v., anesthetized, tracheostomized, mechanically ventilated mice (FIG. 2C))	IL-4 secretion to OVA recall [4, 9]	IL-5 secretion to OVA recall [4, 9]	IL-13 secretion to OVA recall [4, 9]	ova-specific secretion of IFN-γ after in vitro re-challenge ([4]; sensitized and DPPE-PEG treated animals)	dermatitis in the CHS model [8]
Phosphatidylethanolamine [reference compound]	bind	prevent	–	–	–	–	–	–	–	–	–	–	–	–	–	–
CCCCCCCCCCCCCCCC(=O)OC[C@H](COP(=O)(O)OCCN)OC(=O)CCCCCCCCCCCCCCC [DPPE, 1,2-Dipalmitoyl-sn-Glycero-3-Phosphoethanolamine]	–	–	almost completely abrogated	minimal mucus production and negligible cellular infiltration	completely inhibited	does not inhibit	–	–	–	–	–	–	–	–	–	–
1,2-Dipalmitoyl-sn-Glycero-3-Phosphoethanolamine-N-[Methoxy(Polyethylene glycol)-350] [DPPE-PEG350]	bind	prevent	significantly reducing	no significant differences	completely prevented	–	inhibited	preferentially inhibited	no or minimal effect	inhibited	confirmed	No significant difference	No significant difference	No significant difference	did not affect	blocked
